One data set relates to BaF3 cells. Briefly: Cell proliferation, CCK-8, parental BaF3. Format: cell-based. The conditions noted are these: Mus musculus, 72 hours. From the text: (§1) In the present example, the following cells were used: chronic myelogenous leukemia cells K562 (expressing P210 Bcr-Abl mutant gene), human megakaryocytic leukemia cells MEG-01 (expressing P210 Bcr-Abl mutant gene), human peripheral blood basophilic leukemia cells Ku812 (expressing Bcr-Abl mutant gene) (all above cells purchased from ATCC, USA), human gastrointestinal stromal tumor cell lines GIST-T1 cells (expressing wild-type C-KIT gene) (purchased from Cosmo Bio Co., Ltd., Japan), human gastrointestinal stromal tumor cell lines GIST-882 cells (expressing wild-type C-KIT gene) (presented by the Professor Gray Lab, Dana-Farber Cancer Institute, Harvard University, USA), mouse pro-B cells BaF3 (purchased from ATCC, USA).
(§2) The cells were incubated for 72 hours, and then the number of viable cells was quantified with a microplate reader by using CCK-8 Cell Viability Assay Kit (purchased from Bestbio Company, Shanghai, China) (CCK-8 can be reduced by dehydrogenase in living cells to a highly water-soluble yellow formazan product, and the amount of formazan produced is proportional to the number of living cells).

In the next data set the test system is GIST-T1 cells. The experiment in a line: Cancer cell proliferation, CCK-8, GIST-T1. The class given is cell-based. The conditions noted are these: Homo sapiens, GISTT1, GIST-T1, KIT WT, 72 hours.
Excerpt: as §1, §2

In data set [1] the test system is GIST-882 cells. The experiment in a line: Cancer cell proliferation, CCK-8, GIST-882. The class given is cell-based. The conditions noted are these: Homo sapiens, GIST882, GIST-882, KIT WT, 72 hours.
Excerpt: as §1, §2

The subject of data set [2] is Tel-cKit/V654A-BaF3 cells (KIT V654A). The experiment in a line: Cell proliferation, CCK-8, Tel-cKit/V654A-BaF3. The class given is cell-based. The conditions noted are these: Mus musculus, 72 hours.
Excerpt: (§3) In addition, in the present example, further uses: mouse P210/BaF3 (stably expressing P210 Bcr-Abl mutant gene), mouse Tel-ABL-BaF3 (stably expressing wild-type ABL kinase), mouse Tel-cKit-BaF3 (stably expressing C-KITwild-type kinase), mouse Tel-cKit/V559D-BaF3 (stably expressing C-KIT V559D mutant kinase), mouse Tel-cKit/V559D/V654A-BaF3 (stably expressing C-KIT V559D/V654A mutant kinase), mouse Tel-cKit/N822K-BaF3 (stably expressing C-KIT N822K mutant kinase), mouse Tel-cKit/V654A-BaF3 (stably expressing C-KIT V654A mutant kinase), mouse Tel-cKit/L567P-BaF3 (stably expressing C-KIT L567P mutant kinase), mouse Tel-cKit/T670I-BaF3 (stably expressing C-KIT T670I mutant kinase), mouse Tel-PDGFRα-BaF3 (stably expressing PDGFRα kinase), mouse Tel-PDGFRβ-BaF3 (stably expressing PDGFRβ kinase), mouse Tel-VEGFR2-BaF3 (stably expressing VEGFR2 kinase), mouse Tel-RET-BaF3 (stably expressing RET kinase). The above cell lines were all constructed by our laboratory according to the following method: the kinase region sequences of human P210 Bcr-Abl, ABL, C-KIT, C-KIT V559D, C-KIT V559D/V654A, C-KIT N822K, C-KIT V654A, C-KIT L567P, C-KIT T670I, PDGFRα, PDGFRβ, VEGFR2, RET were amplified respectively by PCR, inserted respectively into MSCV-Puro vectors harboring N-terminal TEL fragment and/or NPM fragment and/or TPR fragment (Clontech), then the vectors were stably transfected into mouse BaF3 cells by retrovirus methods and growth factor IL-3 was removed, eventually obtaining cell lines that are transferred protein (P210 Bcr-Abl, ABL, C-KIT, C-KIT V559D, C-KIT V559D/V654A, C-KIT N822K, C-KIT V654A, C-KIT L567P, C-KIT T670I, PDGFRα, PDGFRβ, VEGFR2, RET)-dependent.
as §2

In data set [3] the test system is Tel-PDGFRα-BaF3 cells (PDGFRα). The experiment in a line: Cell proliferation, CCK-8, Tel-PDGFRα-BaF3. The class given is cell-based. The conditions noted are these: Mus musculus, 72 hours.
Excerpt: as §3, §2

Data set [4] has as its system GIST-882 cells. The experiment in a line: Cell cycle distribution by flow cytometry, GIST-882. Format: cell-based, human. To be noted: GIST-882, treated 48 hours.
In data set [5] the test system is phosphorylation of C-KIT and pathway proteins in GIST-882 cells. The experiment in a line: Effects on cell signaling pathways (phosphorylation), GIST-882. The conditions noted are these: GIST-882, 0.1 μM, 2 hours. Format: cell-based, human.
Data set [6] relates to Tel-RET-BaF3 cells (RET WT). The experiment in a line: Cell proliferation, CCK-8, Tel-RET-BaF3. Format: cell-based. The conditions noted are these: Mus musculus, 72 hours.
Excerpt: as §3, §2

In data set [7] the test system is P210/BaF3 cells (P210 Bcr-Abl). The experiment in a line: Cell proliferation, CCK-8, P210/BaF3. The class given is cell-based. To be noted: Mus musculus; P210/BaF3, Bcr-Abl, 72 hours, CCK-8; read-out: GI50.
Excerpt: (§4) In addition, in the present example, further uses: mouse P210/BaF3 (stably expressing P210 Bcr-Abl mutant gene), mouse Tel-ABL-BaF3 (stably expressing wild-type ABL kinase), mouse Tel-cKit-BaF3 (stably expressing C-KITwild-type kinase), mouse Tel-cKit/V559D-BaF3 (stably expressing C-KIT V559D mutant kinase), mouse Tel-cKit/V559D/V654A-BaF3 (stably expressing C-KIT V559D/V654A mutant kinase), mouse Tel-cKit/N822K-BaF3 (stably expressing C-KIT N822K mutant kinase), mouse Tel-cKit/V654A-BaF3 (stably expressing C-KIT V654A mutant kinase), mouse Tel-cKit/L567P-BaF3 (stably expressing C-KIT L567P mutant kinase), mouse Tel-cKit/T670I-BaF3 (stably expressing C-KIT T670I mutant kinase), mouse Tel-PDGFRα-BaF3 (stably expressing PDGFRα kinase), mouse Tel-PDGFRβ-BaF3 (stably expressing PDGFRβ kinase), mouse Tel-VEGFR2-BaF3 (stably expressing VEGFR2 kinase), mouse Tel-RET-BaF3 (stably expressing RET kinase). […]
as §2

Data set [8] deals with Tel-PDGFRβ-BaF3 cells (PDGFRβ). Briefly: Cell proliferation, CCK-8, Tel-PDGFRβ-BaF3. Format: cell-based. To be noted: Mus musculus, 72 hours.
Excerpt: as §3, §2

Data set [9] concerns gastrointestinal stromal tumor cell lines GIST-T1. The experiment in a line: Mouse tumor model of GIST-T1 cells. The class given is in vivo. To be noted: for tumor inhibition rate: Day 28 after administration. As for the experimental part:
1. 4-6 week-old Bal b/c female mice were purchased from Shanghai SLAC Experimental Animal Co., Ltd., and were raised in a SPF-level laboratory. Drinking water and padding were both subjected to aseptic processing via high-pressure disinfection, and all operations of the mice were conducted under aseptic conditions;
2. About 5×10^6 gastrointestinal stromal tumor cell lines GIST-T1 or GIST-882 (purchased from ATCC) were respectively injected subcutaneously at left side back of all mice at Day 0;
5. Mice were sacrificed on Day 36 (for GIST-882 mouse model) or Day 43 (GIST-T1 mouse model) and subcutaneous tumors were taken out and weighed for comparison;
6. Tumor tissue specimens were prepared into protein lysate samples for further usage;
7. Growth trend of subcutaneous tumors from Day 16 to Day 43 was derived, and tumor volume was calculated as length×width×width/2 mm^3.

Data set [10] deals with Tel-ABL-BaF3 cells (ABL WT). The experiment in a line: Cell proliferation, CCK-8, Tel-ABL-BaF3. The class given is cell-based. The conditions noted are these: Mus musculus; Tel-ABL-BaF3, ABL WT, 72 hours, CCK-8; read-out: GI50.
Excerpt: as §4, §2

For data set [11], the system named is Tel-cKit/T670I-BaF3 cells (KIT T670I). The experiment in a line: Cell proliferation, CCK-8, Tel-cKit/T670I-BaF3. Format: cell-based. The conditions noted are these: Mus musculus, 72 hours.
Excerpt: as §3, §2

Data set [12] concerns cells expressing wild-type C-KIT kinase. The experiment in a line: Cell proliferation, C-KIT cells. To be noted: cells expressing wild-type C-KIT kinase, summary of Table 2. The class given is cell-based.
Excerpt: as §1, §3, §2

The source of these data is US10793543B2, “Selective C-KIT kinase inhibitor” (PRECEDO PHARMACEUTICALS CO., LTD, priority 2016, dated 2020).

One may read the GI50 as the concentration giving 50% growth inhibition.

Some results are limits rather than exact numbers.

As for `Cc1ccc(NC(=O)c2cccc(C(F)(F)F)c2)cc1OC1CCN(C(=O)c2ccncc2)CC1` [Compound 4], the GI50 with BaF3 cells was over 10000 nM; with GIST-T1 cells, 21 nM; in the data set with GIST-882 cells [1], 43 nM; in data set [2] it was 1030 nM; in [3], 38 nM; in data set [6] it was 590 nM. For the same compound, the GI50 in data set [7] was 6050 nM; in data set [8], 27 nM; in [10], 5060 nM; in data set [11], 5310 nM; in [12] it was under 500 nM. Moreover, in the data set on GIST-882 cells [4], the “effect on cell cycle” value is “significantly blocked in the GO-G1 phase”. Also, the “phosphorylation of C-KIT oncogenic protein” value in data set [5] is recorded as “significantly inhibiting”. The “phosphorylation of proteins such as Stat5, AKT, ErK, S6K, S6, PDGFRα” value in data set [5] was “significant inhibitory effects”. Further, the “inhibitory effect on mouse tumors” value in [9] (25 mg/kg oral daily, Day 4 after administration) is “certain inhibitory effect”. Moreover, the tumor inhibition rate in data set [9] (50 mg/kg oral daily) is 65.3%; in data set [9] (100 mg/kg oral daily), 73.8%. For the same compound, the “effect on body weight of mice” value in [9] (oral daily dosing) was “no effect on the body weight of mice”.
